Where “and” joins values, the source holds several entries; their conditions need not be identical. Identical values can stand only once. Inconclusive results and toxic doses are left out. Rule for the calls: active = survival T/C of 150% or more; inactive = T/C below 125% in these data.
System: BDF1 mice, B16 melanoma ip, median survival T/C
Assay: NCI In Vivo Anticancer Drug Screen. Data for tumor model B16 Melanoma (intraperitoneal) in B6D2F1 (BDF1) mice
Settings: endpoint: median survival time, higher = longer survival
Method in brief: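 The ratio T/C compares compound-treated mice with vehicle-treated controls, using survival or tumor size as the endpoint in a transplantable tumor model.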

[1] = dose: 100.0 mg/kg/injection, schedule: Q01DX009 (ip), vehicle: Klucel (hydroxypropylcellulose) (HPC)
[2] = dose: 200.0 mg/kg/injection, schedule: Q01DX009 (ip), vehicle: Klucel (hydroxypropylcellulose) (HPC)
[3] = dose: 400.0 mg/kg/injection, schedule: Q01DX009 (ip), vehicle: Klucel (hydroxypropylcellulose) (HPC)
[4] = dose: 12.5 mg/kg/injection, schedule: Q01DX009 (ip), vehicle: saline with Tween-80
[5] = dose: 25.0 mg/kg/injection, schedule: Q01DX009 (ip), vehicle: saline with Tween-80
[6] = dose: 75.0 mg/kg/injection, schedule: Q04DX003 (ip), vehicle: Klucel (hydroxypropylcellulose) (HPC)
[7] = dose: 150.0 mg/kg/injection, schedule: Q04DX003 (ip), vehicle: Klucel (hydroxypropylcellulose) (HPC)
[8] = dose: 6.25 mg/kg/injection, schedule: Q01DX009 (ip), vehicle: Klucel (hydroxypropylcellulose) (HPC)
[9] = dose: 12.5 mg/kg/injection, schedule: Q01DX009 (ip), vehicle: Klucel (hydroxypropylcellulose) (HPC)
[10] = dose: 25.0 mg/kg/injection, schedule: Q01DX009 (ip), vehicle: Klucel (hydroxypropylcellulose) (HPC)
[11] = dose: 50.0 mg/kg/injection, schedule: Q01DX009 (ip), vehicle: saline with Tween-80
[12] = dose: 50.0 mg/kg/injection, schedule: Q01DX009 (ip), vehicle: saline
[13] = dose: 100.0 mg/kg/injection, schedule: Q01DX009 (ip), vehicle: saline
[14] = dose: 200.0 mg/kg/injection, schedule: Q01DX009 (ip), vehicle: saline
[15] = dose: 50.0 mg/kg/injection, schedule: Q04DX003 (ip), vehicle: saline with Tween-80
[16] = dose: 100.0 mg/kg/injection, schedule: Q04DX003 (ip), vehicle: saline with Tween-80
[17] = dose: 100.0 mg/kg/injection, schedule: Q01DX009 (ip), vehicle: saline with Tween-80
[18] = dose: 200.0 mg/kg/injection, schedule: Q04DX003 (ip), vehicle: saline with Tween-80
[19] = dose: 400.0 mg/kg/injection, schedule: Q04DX003 (ip), vehicle: saline with Tween-80
[20] = dose: 200.0 mg/kg/injection, schedule: Q01DX009 (ip), vehicle: saline with Tween-80
[21] = dose: 50.0 mg/kg/injection, schedule: Q01DX009 (ip), vehicle: Klucel (hydroxypropylcellulose) (HPC)
[22] = dose: 12.5 mg/kg/injection, schedule: Q01DX009 (ip), vehicle: saline
[23] = dose: 25.0 mg/kg/injection, schedule: Q01DX009 (ip), vehicle: saline
[24] = dose: 400.0 mg/kg/injection, schedule: Q01DX009 (ip), vehicle: saline

Measured: T/C

Cn1c(O)c(C=N)c(=O)n(C)c1=O
inactive: dose: 25.0 mg/kg/injection, schedule: Q01DX009 (ip), vehicle: other 111 % of control | dose: 50.0 mg/kg/injection, schedule: Q01DX009 (ip), vehicle: other 102 % of control

COc1ccc(CC(CO)C(CO)Cc2ccc(OC)c(OC)c2)cc1OC (centres undefined)
inactive: [1] 93 % of control | [2] 100 % of control | [3] 103 % of control

CC(C)Cc1ccc(OC(=O)Nc2ccc(Cl)cc2)cc1
inactive: dose: 6.25 mg/kg/injection, schedule: Q01DX009 (ip), vehicle: saline with Tween-80 97 % of control | [4] 100 % of control | [5] 91 % of control and 98 % of control

COC(=O)c1ccc(Cl)nc1
inactive: [1] 94 % of control | [3] 94 % of control

CCOC12c3ccccc3N(S(C)(=O)=O)C(C)C1C2(Br)Br (centres undefined)
inactive: [6] 104 % of control | [7] 87 % of control | dose: 300.0 mg/kg/injection, schedule: Q04DX003 (ip), vehicle: Klucel (hydroxypropylcellulose) (HPC) 107 % of control

O=C1Nc2ccccc2/C1=C\c1ccccc1O
inactive: dose: 1.56 mg/kg/injection, schedule: Q01DX009 (ip), vehicle: Klucel (hydroxypropylcellulose) (HPC) 106 % of control | dose: 3.12 mg/kg/injection, schedule: Q01DX009 (ip), vehicle: Klucel (hydroxypropylcellulose) (HPC) 106 % of control | [8] 91 % of control | [9] 105 % of control | [10] 89 % of control

COC(=O)Nc1cccc(-c2nc3ccc(NC(=O)OC)cc3c(=O)n2-c2ccccc2)c1
inactive: dose: 8.0 mg/kg/injection, schedule: Q01DX009 (ip), vehicle: Klucel (hydroxypropylcellulose) (HPC) 107 % of control | dose: 8.0 mg/kg/injection, schedule: Q01DX009 (ip), vehicle: saline 112 % of control | dose: 16.0 mg/kg/injection, schedule: Q01DX009 (ip), vehicle: Klucel (hydroxypropylcellulose) (HPC) 107 % of control | dose: 50.0 mg/kg/injection, schedule: Q04DX005 (ip), vehicle: other 112 % of control | dose: 50.0 mg/kg/injection, schedule: Q04DX006 (ip), vehicle: saline 117 % of control | dose: 64.0 mg/kg/injection, schedule: Q01DX009 (ip), vehicle: saline 123 % of control | dose: 100.0 mg/kg/injection, schedule: Q04DX005 (ip), vehicle: other 120 % of control | dose: 100.0 mg/kg/injection, schedule: Q04DX005 (oral), vehicle: saline 99 % of control | dose: 200.0 mg/kg/injection, schedule: Q04DX005 (oral), vehicle: saline 97 % of control | dose: 400.0 mg/kg/injection, schedule: Q04DX005 (oral), vehicle: saline 114 % of control

CCOC(=O)C(Cc1ccc(Cl)c(Cl)c1)(Cc1ccc(Cl)c(Cl)c1)C(=O)OCC
inactive: [4] 99 % of control | [5] 97 % of control | [11] 94 % of control

Nc1ccc(N2CCNCC2)cc1
inactive: [12] 108 % of control | [13] 97 % of control | [14] 100 % of control

CC(C)=C(C=O)CCC(C)C
inactive: dose: 25.0 mg/kg/injection, schedule: Q04DX003 (ip), vehicle: saline with Tween-80 100 % of control | [15] 95 % of control | [16] 97 % of control and 100 % of control

[Cl][Pt+2][Cl].[NH-]c1cc2ccccc2cc1[NH-]
inactive: dose: 20.0 mg/kg/injection, schedule: Q01DX009 (ip), vehicle: saline with Tween-80 113 % of control | dose: 40.0 mg/kg/injection, schedule: Q01DX009 (ip), vehicle: saline with Tween-80 122 % of control | dose: 80.0 mg/kg/injection, schedule: Q01DX009 (ip), vehicle: saline with Tween-80 120 % of control | dose: 160.0 mg/kg/injection, schedule: Q01DX009 (ip), vehicle: saline with Tween-80 87 % of control | dose: 320.0 mg/kg/injection, schedule: Q01DX009 (ip), vehicle: saline with Tween-80 118 % of control

CS(=O)(=O)c1cc(C(F)(F)F)cc([N+](=O)[O-])c1Cl
inactive: [5] 89 % of control | [11] 95 % of control | [17] 95 % of control

CCOC(=O)CCCN(c1sc(C)c(C)c1C(=O)OCC)S(=O)(=O)c1ccc(C)cc1
inactive: [15] 111 % of control | [16] 105 % of control | [18] 111 % of control | [19] 100 % of control

O=S(=O)(OCC(COS(=O)(=O)c1ccccc1)(COS(=O)(=O)c1ccccc1)COS(=O)(=O)c1ccccc1)c1ccccc1
inactive: [11] 110 % of control | [17] 97 % of control | [20] 110 % of control

COc1ccccc1N1CCN(CCCC(=O)c2ccc(F)cc2)CC1
inactive: dose: 0.09 mg/kg/injection, schedule: Q04DX003 (ip), vehicle: Klucel (hydroxypropylcellulose) (HPC) 93 % of control | dose: 0.19 mg/kg/injection, schedule: Q04DX003 (ip), vehicle: Klucel (hydroxypropylcellulose) (HPC) 91 % of control | dose: 0.39 mg/kg/injection, schedule: Q04DX003 (ip), vehicle: Klucel (hydroxypropylcellulose) (HPC) 96 % of control | dose: 0.78 mg/kg/injection, schedule: Q04DX003 (ip), vehicle: Klucel (hydroxypropylcellulose) (HPC) 87 % of control | dose: 1.56 mg/kg/injection, schedule: Q04DX003 (ip), vehicle: Klucel (hydroxypropylcellulose) (HPC) 90 % of control | [8] 92 % of control | [9] 92 % of control | [10] 100 % of control | [21] 105 % of control

Cc1ccc(NC(=O)c2ccccc2C(=O)O)cc1Cl
inactive: [1] 94 % of control | [2] 94 % of control

Cc1cc(Cl)ccc1NC(=O)c1ccc([N+](=O)[O-])cc1
inactive: [11] 104 % of control | [17] 100 % of control | [20] 103 % of control

CNC(=O)ON(C(C)=O)C(=O)NC
inactive: [22] 87 % of control | [23] 88 % of control

CC(NC(=O)C(N)CCC(=O)O)C(=O)O (centres undefined)
inactive: [12] 97 % of control | [13] 90 % of control | [14] 90 % of control | [24] 94 % of control

COc1cc(C(=O)OC(C)CN2CCN(C(=O)c3cc(OC)c(OC)c(OC)c3)CC2)cc(OC)c1OC (centres undefined)
inactive: [22] 116 % of control | [23] 105 % of control | [12] 100 % of control | [13] 110 % of control

CC1CC(C)(O)C2C3(C)CCCC2(COC3=O)C12CCC1(CCOC1=O)O2 (centres undefined)
inactive: dose: 2.5 mg/kg/injection, schedule: Q01DX009 (ip), vehicle: saline with Tween-80 102 % of control | dose: 5.0 mg/kg/injection, schedule: Q01DX009 (ip), vehicle: saline with Tween-80 94 % of control | dose: 10.0 mg/kg/injection, schedule: Q01DX009 (ip), vehicle: saline with Tween-80 98 % of control

O=C(Nc1ccc(Cl)cc1)OCCN1CCOCC1
inactive: [17] 110 % of control | [20] 110 % of control | dose: 400.0 mg/kg/injection, schedule: Q01DX009 (ip), vehicle: saline with Tween-80 97 % of control

COc1cccc(O)c1
inactive: [5] 97 % of control | [11] 96 % of control | [17] 91 % of control | [20] 86 % of control

CC(C)CC(NC(=O)c1ccccc1)C(=O)O (centres undefined)
inactive: [17] 97 % of control

O=[N+]([O-])/C=C/c1ccc2ccccc2c1
inactive: [21] 95 % of control | [1] 107 % of control

Cc1ccc(NC(=S)NC(Cc2ccccc2)c2ccccc2)cc1 (centres undefined)
inactive: [9] 102 % of control | [10] 100 % of control | dose: 37.5 mg/kg/injection, schedule: Q04DX003 (ip), vehicle: Klucel (hydroxypropylcellulose) (HPC) 100 % of control | [21] 100 % of control | [6] 92 % of control | [7] 100 % of control

COc1c2ccoc2c(OCC=C(C)C)c2oc(=O)ccc12
inactive: [16] 94 % of control | [18] 105 % of control | [19] 97 % of control

CCCOCC(O)CO (centres undefined)
inactive: [13] 118 % of control | [14] 118 % of control | [24] 112 % of control

O=C(O)c1ccc(OC(F)(F)C(F)Cl)cc1 (centres undefined)
inactive: [10] 106 % of control | [21] 100 % of control | [1] 106 % of control

Reference: PubChem BioAssay AID192 (DTP/NCI, 2004)
